According to US10538498B2, “1,3,4-oxadiazole sulfonamide derivative compounds as histone deacetylase 6 inhibitor, and the pharmaceutical composition comprising the same” (Chong Kun Dang Pharmaceutical Corp., priority 2015, dated 2020):

Target: T1, human recombinant HDAC6 (Homo sapiens, UniProt Q9UBN7)
T1 construct: purchased Calbiochem 382180
T1 sequence (Q9UBN7 1-1215): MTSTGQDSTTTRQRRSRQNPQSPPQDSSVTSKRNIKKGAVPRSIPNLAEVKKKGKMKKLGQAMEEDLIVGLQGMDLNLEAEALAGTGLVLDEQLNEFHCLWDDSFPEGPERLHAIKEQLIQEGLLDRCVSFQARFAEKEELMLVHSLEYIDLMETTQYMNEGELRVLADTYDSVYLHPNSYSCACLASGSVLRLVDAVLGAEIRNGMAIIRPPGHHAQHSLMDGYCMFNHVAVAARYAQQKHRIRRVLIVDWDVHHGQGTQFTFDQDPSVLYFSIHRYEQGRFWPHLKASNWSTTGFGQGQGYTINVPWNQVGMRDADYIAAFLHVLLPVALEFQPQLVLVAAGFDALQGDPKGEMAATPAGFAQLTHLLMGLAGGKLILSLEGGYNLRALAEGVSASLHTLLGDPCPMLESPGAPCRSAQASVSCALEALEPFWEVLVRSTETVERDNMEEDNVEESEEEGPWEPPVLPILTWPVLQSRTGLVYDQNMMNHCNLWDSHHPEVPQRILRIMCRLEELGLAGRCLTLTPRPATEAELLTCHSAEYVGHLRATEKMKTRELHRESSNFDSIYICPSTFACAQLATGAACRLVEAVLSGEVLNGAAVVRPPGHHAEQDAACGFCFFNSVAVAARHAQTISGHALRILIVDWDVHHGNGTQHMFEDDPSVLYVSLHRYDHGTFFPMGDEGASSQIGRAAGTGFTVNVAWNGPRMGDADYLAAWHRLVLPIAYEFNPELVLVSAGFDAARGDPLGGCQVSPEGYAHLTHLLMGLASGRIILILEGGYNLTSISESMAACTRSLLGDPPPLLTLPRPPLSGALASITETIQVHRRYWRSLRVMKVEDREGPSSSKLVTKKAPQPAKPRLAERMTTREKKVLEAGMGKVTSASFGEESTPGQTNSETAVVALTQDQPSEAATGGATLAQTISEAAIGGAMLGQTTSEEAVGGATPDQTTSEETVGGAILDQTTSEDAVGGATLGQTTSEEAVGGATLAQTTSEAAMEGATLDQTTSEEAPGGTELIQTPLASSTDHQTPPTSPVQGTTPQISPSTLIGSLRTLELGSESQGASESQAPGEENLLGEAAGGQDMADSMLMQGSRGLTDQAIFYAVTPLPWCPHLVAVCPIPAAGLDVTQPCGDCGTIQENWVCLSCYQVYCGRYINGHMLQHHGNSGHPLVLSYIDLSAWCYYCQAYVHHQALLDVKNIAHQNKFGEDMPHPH
Assay: HDAC6 enzyme activity inhibition assay (HDAC Fluorimetric Drug Discovery Kit)
Assay type: biochemical
Conditions: for HDAC6 selectivity (fold): HDAC1 vs HDAC6; for IC50: same protocol as the HDAC1 enzyme activity test
Description: In order to examine the HDAC6 selectivity of the compounds of formula I of the present invention by HDAC1 and HDAC6 enzymatic activity inhibition assays, an experiment was performed using a conventional substance as a control.
HDAC enzyme activity was measured using a HDAC Fluorimetric Drug Discovery Kit (BML-AK511, 516, Enzo Life Science). For the HDAC1 enzyme activity test, human recombinant HDAC1 (BML-SE456) was used as an enzyme source, and Fluor de Lys®-“SIRT1 (BNL-KI177) was used as a substrate. A 5-fold dilution of the compound was seeded into a 96-well plate, and then 0.3 μg of the enzyme and 10 μM of the substrate were added to each well of the plate and allowed to react at 30° C. for 60 minutes. Then, Fluor de Lys®-Developer II (BML-KI176) was added thereto and allowed to react for 30 minutes, after which the fluorescence value (Ex 360, Em 460) was measured using a multi-plate reader (Flexstation 3, Molecular Device). The HDAC6 enzyme was tested using human recombinant HDAC6 (382180) (Calbiochem) according to the same protocol as the HDAC1 enzyme activity test method. Based on the resulting values, each IC50 value was calculated using GraphPad Prism4.0 program.

Row | Compound | HDAC6 selectivity (fold) | IC50
1 | CS(=O)(=O)N(Cc1ccc(-c2nnc(C(F)F)o2)cc1)c1ncco1 [Compound 11741, N-(4-(5-(difluoromethyl)-1,3,4-oxadiazol-2-yl)benzyl)-N-(oxazol-2-yl)methanesulfonamide] | 57 fold | 1740 nM
2 | CS(=O)(=O)N(Cc1ncc(-c2nnc(C(F)F)o2)cn1)c1ccccc1 [Compound 11564, N-((5-(5-(difluoromethyl)-1,3,4-oxadiazol-2-yl)pyrimidin-2-yl)methyl)-N-phenylmethanesulfonamide] | 4762 fold | 21 nM
3 | CS(=O)(=O)N(Cc1ccc(-c2nnc(C(F)F)o2)cn1)CC12CC3CC(CC(C3)C1)C2 [Compound 11669, N-((adamantan-1-yl)methyl)-N-((5-(5-(difluoromethyl)-1,3,4-oxadiazol-2-yl)pyridin-2-yl)methyl)methanesulfonamide] | 900 fold | 111 nM
4 | CS(=O)(=O)N(Cc1ccc(-c2nnc(C(F)F)o2)cc1F)c1ccc2ncsc2c1 [Compound 11775, N-(benzo[d]thiazol-6-yl)-N-(4-(5-(difluoromethyl)-1,3,4-oxadiazol-2-yl)-2-fluorobenzyl)methanesulfonamide] | 2906 fold | 34.4 nM
5 | N#CC1CCN(CCS(=O)(=O)N(Cc2ccc(-c3nnc(C(F)F)o3)cc2)c2ccccc2)CC1 [Compound 11818, 2-(4-cyanopiperidin-1-yl)-N-(4-(5-(difluoromethyl)-1,3,4-oxadiazol-2-yl)benzyl)-N-phenylethane-1-sulfonamide] | 1647 fold | 60.7 nM
6 | O=S(=O)(CCN1CCCCC1)N(Cc1ccc(-c2nnc(C(F)F)o2)cc1)c1ccccc1 [Compound 11629, N-(4-(5-(difluoromethyl)-1,3,4-oxadiazol-2-yl)benzyl)-N-phenyl-2-(piperidin-1-yl)ethane-1-sulfonamide] | 1041 fold | 96 nM
7 | O=S(=O)(C1CCN(C2COC2)CC1)N(Cc1ccc(-c2nnc(C(F)F)o2)cn1)c1cccc(Cl)c1 [Compound 11683, N-(3-chlorophenyl)-N-((5-(5-(difluoromethyl)-1,3,4-oxadiazol-2-yl)pyridin-2-yl)methyl)-1-(oxetan-3-yl)piperidine-4-sulfonamide] | 14285 fold | 7 nM
8 | COC(=O)C1CN(CCS(=O)(=O)N(Cc2ccc(-c3nnc(C(F)F)o3)cc2)c2ccccc2)C1 [Compound 11820, methyl 1-(2-(N-(4-(5-(difluoromethyl)-1,3,4-oxadiazol-2-yl)benzyl)-N-phenylsulfamoyl)ethyl)azetidine-3-carboxylate] | 1652 fold | 60.5 nM
9 | CS(=O)(=O)N(Cc1ccc(-c2nnc(C(F)F)o2)nc1)c1ccccc1 [Compound 11174, N-((6-(5-(difluoromethyl)-1,3,4-oxadiazol-2-yl)pyridin-3-yl)methyl)-N-phenylmethanesulfonamide] | 76 fold | 1310 nM
10 | O=S(=O)(CCCN1CCC(F)C1)N(Cc1ccc(-c2nnc(C(F)F)o2)cc1)c1ccccc1 (stereo in doubt) [Compound 11724, (R)—N-(4-(5-(difluoromethyl)-1,3,4-oxadiazol-2-yl)benzyl)-3-(3-fluoropyrrolidin-1-yl)-N-phenylpropane-1-sulfonamide] | 741 fold | 135 nM
11 | CS(=O)(=O)N(Cc1ccc(-c2nnc(C(F)F)o2)cc1)c1ccc(Br)cn1 [Compound 11347, N-(5-bromopyridin-2-yl)-N-(4-(5-(difluoromethyl)-1,3,4-oxadiazol-2-yl)benzyl)methanesulfonamide] | 971 fold | 103 nM
12 | O=S(=O)(CCN1CCN(c2ccccn2)CC1)N(Cc1ccc(-c2nnc(C(F)F)o2)cc1)c1ccccc1 [Compound 11767, N-(4-(5-(difluoromethyl)-1,3,4-oxadiazol-2-yl)benzyl)-N-phenyl-2-(4-(pyridin-2-yl)piperazin-1-yl)ethane-1-sulfonamide] | 844 fold | 118 nM
13 | CCCCS(=O)(=O)N(Cc1ccc(-c2nnc(C(F)F)o2)cc1F)c1ccccc1 [Compound 11290, N-(4-(5-(difluoromethyl)-1,3,4-oxadiazol-2-yl)-2-fluorobenzyl)-N-phenylbutane-1-sulfonamide] | 2041 fold | 49 nM
14 | O=S(=O)(CCN1CC[C@@H](F)C1)N(Cc1ccc(-c2nnc(C(F)F)o2)cc1)c1ccccc1 [Compound 11753, (R)—N-(4-(5-(difluoromethyl)-1,3,4-oxadiazol-2-yl)benzyl)-2-(3-fluoropyrrolidin-1-yl)-N-phenylethane-1-sulfonamide] | 953 fold | 105 nM
15 | CS(=O)(=O)N(Cc1ccc(-c2nnc(C(F)F)o2)cc1F)c1ccccc1F [Compound 11274] | 2439 fold | 41 nM
16 | Cc1cccc(N(Cc2ccc(-c3nnc(C(F)F)o3)cc2F)S(C)(=O)=O)c1 [Compound 11178, N-(4-(5-(difluoromethyl)-1,3,4-oxadiazol-2-yl)-2-fluorobenzyl)-N-(m-tolyl)methanesulfonamide] | 5000 fold | 20 nM
17 | CS(=O)(=O)N(Cc1ccc(-c2nnc(C(F)F)o2)nn1)c1ccccc1 [Compound 11566, N-((6-(5-(difluoromethyl)-1,3,4-oxadiazol-2-yl)pyridazin-3-yl)methyl)-N-phenylmethanesulfonamide] | 1124 fold | 89 nM
18 | O=C(C1CC1)N1CC(N2CCC(S(=O)(=O)N(Cc3ccc(-c4nnc(C(F)F)o4)cn3)c3cccc(Cl)c3)CC2)C1 [Compound 11784, N-(3-chlorophenyl)-1-(1-(cyclopropanecarbonyl)azetidin-3-yl)-N-((5-(5-(difluoromethyl)-1,3,4-oxadiazol-2-yl)pyridin-2-yl)methyl)piperidine-4-sulfonamide] | 3154 fold | 31.7 nM
19 | CC(=O)N1CCN(CCCS(=O)(=O)N(Cc2ccc(-c3nnc(C(F)F)o3)cc2)c2ccccc2)CC1 [Compound 11656, 3-(4-acetylpiperazin-1-yl)-N-(4-(5-(difluoromethyl)-1,3,4-oxadiazol-2-yl)benzyl)-N-phenylpropane-1-sulfonamide] | 1587 fold | 63 nM
20 | CS(=O)(=O)N(Cc1ccc(-c2nnc(C(F)(F)F)o2)cc1F)c1cccc(C(F)(F)F)c1 [Compound 11175, N-(2-fluoro-4-(5-(trifluoromethyl)-1,3,4-oxadiazol-2-yl)benzyl)-N-(3-(trifluoromethyl)phenyl)methanesulfonamide] | 559 fold | 179 nM
21 | CS(=O)(=O)N(Cc1ccc(-c2nnc(C(F)F)o2)cc1F)c1cncnc1 [Compound 11195, N-(4-(5-(difluoromethyl)-1,3,4-oxadiazol-2-yl)-2-fluorobenzyl)-N-(pyrimidin-5-yl)methanesulfonamide] | 1563 fold | 64 nM
22 | CC(C)(C)OC(=O)N1CCN(CCS(=O)(=O)N(Cc2ccc(-c3nnc(C(F)F)o3)cc2)c2ccccc2)CC1 [Compound 11631, tert-butyl 4-(2-(N-(4-(5-(difluoromethyl)-1,3,4-oxadiazol-2-yl)benzyl)-N-phenylsulfamoyl)ethyl)piperazine-1-carboxylate] | 436 fold | 229 nM
